Laboratory results as given in patent US20250320252A1 (The Scripps Research Institute, priority 2021, published 2025).
Several values for one entry are separate records, joined by “and”; a condition that tells them apart may be missing. Equal entries are not always repeated. Where two headings read alike, the source gives them in different places. Numbered stars: 1 amine (or outer) side, 2 acyl side, 3 side chain; on linkers, the order of the positions; unused ones are H or OH. Bridge positions count the residues as written; N and C are the ends. Square brackets hold non-standard residues; d marks the D form. Peptide text beside a SMILES is read from it. X2 = O=C(O)CCCCCCCCCCCCCCCCCCC(=O)N[C@@H](CCCCNC(=O)CCOCCOCCNC(=O)CCOCCOCCNC(=O)CCC(=O)N(CCNC(=O)C[*:1])CCNC(=O)C[*:2])C(=O)O; Aib = CC(C)(N)C(=O)O

Assays:
[1] = Pharmacokinetics in CD-1 mouse, plasma concentration by LC-MS; format: in vivo; details: individual animals
Experimental: The peptide plasma concentration at various time points was determined using LC-MS.

[2] = dog, in vivo, po
human GIPR = target: T1, human GIPR (Homo sapiens, UniProt P48546); assay: In vitro receptor activation reporter assay (CRE-Luc), HEK293-GIPR-CRE; format: cell-based
T1 construct: expressed in transfected cells
T1 sequence (P48546 22-466): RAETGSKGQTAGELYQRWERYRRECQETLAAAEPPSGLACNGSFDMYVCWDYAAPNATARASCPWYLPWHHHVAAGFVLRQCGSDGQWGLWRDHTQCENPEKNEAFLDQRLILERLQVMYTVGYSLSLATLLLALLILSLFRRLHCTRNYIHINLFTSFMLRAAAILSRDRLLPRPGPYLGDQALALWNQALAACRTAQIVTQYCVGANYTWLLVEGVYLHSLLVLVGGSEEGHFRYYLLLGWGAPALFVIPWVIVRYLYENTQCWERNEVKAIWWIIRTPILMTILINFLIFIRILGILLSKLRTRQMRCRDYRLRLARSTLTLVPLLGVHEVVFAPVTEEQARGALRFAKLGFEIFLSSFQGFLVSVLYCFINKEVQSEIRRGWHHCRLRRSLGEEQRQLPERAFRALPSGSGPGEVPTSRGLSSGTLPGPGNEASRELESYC
Text: HEK293 cells were infected with lentivirus encoding firefly luciferase gene under the control of cAMP responsive element (CRE) promoter (Qiagen, The Netherlands) and then were selected using 1 g mL^−1 puromycin (Life Technologies, Carlsbad) for 1 week. The surviving cells (referred to as CRE-HEK293) were expanded and then transfected with a G418 selective mammalian expression plasmid encoding human GLP-1R or GIPR. In brief, GLP-1R or GIPR plasmid was transfected into CRE-HEK293 cells using Lipofectamine 2000 and selected with 400 g mL^−1 Geneticin (Life Technologies, Carlsbad, CA). Single colony stable cell line overexpressing CRE-luciferase and GLP-1R or GIPR (HEK293-GLP-1R-CRE or HEK293-GIPR-CRE) was then established for in vitro activity assay.
(§1) The EC50 of each peptide was determined using GraphPad Prism 6 software (GraphPad, San Diego, CA).

human GLP-1R = target: T2, human GLP-1R (Homo sapiens, UniProt P43220); assay: In vitro receptor activation reporter assay (CRE-Luc), HEK293-GLP-1R-CRE; format: cell-based
T2 construct: expressed in transfected cells
T2 sequence (P43220 24-463): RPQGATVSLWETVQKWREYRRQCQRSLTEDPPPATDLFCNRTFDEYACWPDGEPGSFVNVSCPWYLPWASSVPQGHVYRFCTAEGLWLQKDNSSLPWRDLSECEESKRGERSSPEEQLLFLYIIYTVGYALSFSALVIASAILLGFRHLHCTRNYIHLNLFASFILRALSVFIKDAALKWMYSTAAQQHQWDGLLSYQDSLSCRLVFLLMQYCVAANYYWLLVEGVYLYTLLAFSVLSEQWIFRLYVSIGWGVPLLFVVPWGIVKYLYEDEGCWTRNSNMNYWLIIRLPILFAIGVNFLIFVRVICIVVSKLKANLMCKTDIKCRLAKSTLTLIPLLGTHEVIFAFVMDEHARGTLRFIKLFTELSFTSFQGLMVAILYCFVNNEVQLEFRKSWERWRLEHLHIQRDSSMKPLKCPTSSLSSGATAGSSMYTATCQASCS
Experimental: as §1
HEK293 cells were infected with lentivirus encoding firefly luciferase gene under the control of cAMP responsive element (CRE) promoter (Qiagen, The Netherlands) and then were selected using 1 g/mL puromycin (Life Technologies, Carlsbad) for 1 week. The surviving cells (referred to as CRE-HEK293) were expanded and then transfected with a G418 selective mammalian expression plasmid encoding human GLP-1R. In brief, GLP-1R plasmid was transfected into CRE-HEK293 cells using Lipofectamine 2000 and selected with 400 g/mL Geneticin (Life Technologies, Carlsbad, CA). Single colony stable cell line overexpressing CRE-luciferase and GLP1R was then established for in vitro activity assay.

Structure (SMILES): CC[C@H](C)[C@H](NC(=O)[C@H](CC(C)C)NC(=O)[C@H](Cc1c[nH]c2ccccc12)NC(=O)[C@H](CC(N)=O)NC(=O)[C@@H](NC(=O)[C@H](Cc1ccccc1)NC(=O)[C@@H]1CSCC(=O)NCCN(C(=O)CCC(=O)NCCOCCOCCC(=O)NCCOCCOCCC(=O)NCCCC[C@H](NC(=O)CCCCCCCCCCCCCCCCC(=O)O)C(=O)O)CCNC(=O)CSC[C@H](NC(=O)[C@H](Cc2ccc(O)cc2)NC(=O)[C@@H](NC(=O)[C@H](CO)NC(=O)[C@H](Cc2ccc(O)cc2)NC(=O)[C@H](CC(=O)O)NC(=O)[C@H](CO)NC(=O)[C@@H](NC(=O)[C@H](Cc2ccccc2)NC(=O)[C@@H](NC(=O)CNC(=O)[C@H](CCC(=O)O)NC(=O)C(C)(C)NC(=O)[C@@H](N)Cc2ccc(O)cc2)[C@@H](C)O)[C@@H](C)O)[C@@H](C)CC)C(=O)N[C@@H](CC(=O)O)C(=O)N[C@@H](CCCCN)C(=O)N[C@@H](CCC(N)=O)C(=O)N[C@@H](C)C(=O)N[C@@H](C)C(=O)NC(C)(C)C(=O)N1)C(C)C)C(=O)N[C@@H](C)C(=O)NCC(=O)NCC(=O)N1CCC[C@H]1C(=O)N[C@@H](CO)C(=O)N[C@@H](CO)C(=O)NCC(=O)N[C@@H](C)C(=O)N1CCC[C@H]1C(=O)N1CCC[C@H]1C(=O)N1CCC[C@H]1C(=O)N[C@@H](CO)C(N)=O [mCMZ370, YAibEGT-FTSDY-SIYXD-KQAAAib-XFVNW-LIAGG-PSSGA-PPPS-NH2 (where each X is C)]
- Tlast ([1]; 1 mg/kg I.V.): 72 h
- AUC—%Extrap—pred ([1]; 1 mg/kg I.V., 1 mg/kg): 0.39% and 0.38% and 0.6%
- Cl—pred ([1]; 1 mg/kg I.V., 1 mg/kg): 0.162 mL/min/kg
- Vz—pred ([1]; 1 mg/kg I.V., 1 mg/kg): 0.099 L/kg
- Tlast ([1]; 1 mg/kg S.C.): 72 h
- AUC—%Extrap—pred ([1]; 1 mg/kg S.C., 1 mg/kg): 0.26% and 0.31% and 0.19%
- AUMC—%Extrap—pred ([1]; 1 mg/kg S.C., 1 mg/kg): 0.99%
- Cl—Fpred ([1]; 1 mg/kg S.C., 1 mg/kg): 0.24 mL/min/kg and 0.21 mL/min/kg and 0.06 mL/min/kg
- V—F—pred ([1]; 1 mg/kg S.C., 1 mg/kg): 0.2 L/kg and 0.15 L/kg and 0.13 L/kg
- clearance ([1]; mouse, in vivo, iv, 1 mg/kg, 1 mg/kg I.V., read-out: Cl—pred): 0.112 mL/min/kg

Structure (SMILES): CC[C@H](C)[C@H](NC(=O)[C@H](CC(C)C)NC(=O)[C@H](Cc1c[nH]c2ccccc12)NC(=O)[C@@H]1CSCC(=O)NCCN(C(=O)CCC(=O)NCCOCCOCCC(=O)NCCOCCOCCC(=O)NCCCC[C@H](NC(=O)CCCCCCCCCCCCCCCCCCC(=O)O)C(=O)O)CCNC(=O)CSC[C@H](NC(=O)[C@H](CCCCN)NC(=O)[C@H](CC(=O)O)NC(=O)[C@H](CC(C)C)NC(=O)[C@H](Cc2ccc(O)cc2)NC(=O)[C@@H](NC(=O)[C@H](CO)NC(=O)[C@H](Cc2ccc(O)cc2)NC(=O)[C@H](CC(=O)O)NC(=O)[C@H](CO)NC(=O)[C@@H](NC(=O)[C@H](Cc2ccccc2)NC(=O)[C@@H](NC(=O)CNC(=O)[C@H](CCC(=O)O)NC(=O)C(C)(C)NC(=O)[C@@H](N)Cc2ccc(O)cc2)[C@@H](C)O)[C@@H](C)O)[C@@H](C)CC)C(=O)N[C@@H](C)C(=O)N[C@@H](C)C(=O)NC(C)(C)C(=O)N[C@@H](CCC(=O)O)C(=O)N[C@@H](Cc2ccccc2)C(=O)N[C@@H](C(C)C)C(=O)N1)C(=O)N[C@@H](C)C(=O)NCC(=O)NCC(=O)N1CCC[C@H]1C(=O)N[C@@H](CO)C(=O)N[C@@H](CO)C(=O)NCC(=O)N[C@@H](C)C(=O)N1CCC[C@H]1C(=O)N1CCC[C@H]1C(=O)N1CCC[C@H]1C(=O)N[C@@H](CO)C(N)=O [mCMV268, YAibEGT-FTSDY-SIYLD-KXAAAib-EFVXW-LIAGG-PSSGA-PPPS-NH2 (where each X is C)]
- Bioavailability [2]: 0.27%, 0.27%,

Structure (SMILES): CC[C@H](C)[C@H](NC(=O)[C@H](CC(C)C)NC(=O)[C@H](Cc1c[nH]c2ccccc12)NC(=O)[C@H](CC(N)=O)NC(=O)[C@@H](NC(=O)[C@H](Cc1ccccc1)NC(=O)[C@@H]1CSCC(=O)NCCN(C(=O)CCC(=O)NCCOCCOCCC(=O)NCCOCCOCCC(=O)NCCCC[C@H](NC(=O)CCCCCCCCCCCCCCCCCCC(=O)O)C(=O)O)CCNC(=O)CSC[C@H](NC(=O)[C@H](Cc2ccc(O)cc2)NC(=O)[C@@H](NC(=O)[C@H](CO)NC(=O)[C@H](Cc2ccc(O)cc2)NC(=O)[C@H](CC(=O)O)NC(=O)[C@H](CO)NC(=O)[C@@H](NC(=O)[C@H](Cc2ccc(O)cc2)NC(=O)[C@@H](NC(=O)CNC(=O)[C@H](CCC(=O)O)NC(=O)C(C)(C)NC(=O)[C@@H](N)Cc2ccc(O)cc2)[C@@H](C)O)[C@@H](C)O)[C@@H](C)CC)C(=O)N[C@@H](CC(=O)O)C(=O)N[C@@H](CCCCN)C(=O)N[C@@H](CCC(N)=O)C(=O)N[C@@H](C)C(=O)N[C@@H](C)C(=O)NC(C)(C)C(=O)N1)C(C)C)C(=O)N[C@@H](C)C(=O)NCC(=O)NCC(=O)N1CCC[C@H]1C(=O)N[C@@H](CO)C(=O)N[C@@H](CO)C(=O)NCC(=O)N[C@@H](C)C(=O)N1CCC[C@H]1C(=O)N1CCC[C@H]1C(=O)N1CCC[C@H]1C(=O)N[C@@H](CO)C(N)=O [6Y, 271, C(14-21) - C20L5A, YAibEGT-YTSDY-SIYXD-KQAAAib-XFVNW-LIAGG-PSSGA-PPPS-NH2 (where each X is C)] (H-Y[Aib]EGTYTSDYSIYCDKQAA[Aib]CFVNWLIAGGPSSGAPPPS-NH2; linker 14-21 via X2)
- EC50 (human GIPR; GIPR (nM) [EC50] 02/19, unnumbered table (Table 10), run 02/19): 0.5 nM
- EC50 (human GLP-1R; GLP1R (nM) [EC50] 02/19, unnumbered table (Table 10), run 02/19): 0.04 nM
- EC50 (human GLP-1R; GLP1R (nM) [EC50] 3/25, unnumbered table (Table 10), run 3/25): 0.07 nM
- EC50 (human GLP-1R; GLP1R (nM) [EC50] 03/26, unnumbered table (Table 10), run 03/26): 0.07 nM
- EC50 (human GLP-1R; GLP1R (nM) [EC50] average, unnumbered table (Table 10), average of runs): 0.06 nM

Structure (SMILES): CC[C@H](C)[C@H](NC(=O)[C@H](CO)NC(=O)[C@H](Cc1ccc(O)cc1)NC(=O)[C@H](CC(=O)O)NC(=O)[C@H](CO)NC(=O)[C@@H](NC(=O)[C@H](Cc1ccccc1)NC(=O)[C@@H](NC(=O)CNC(=O)[C@H](CCC(=O)O)NC(=O)C(C)(C)NC(=O)[C@@H](N)Cc1ccc(O)cc1)[C@@H](C)O)[C@@H](C)O)C(=O)N[C@@H](Cc1ccc(O)cc1)C(=O)N[C@@H](CC(C)C)C(=O)N[C@@H](CC(=O)O)C(=O)N[C@@H](CCCCN)C(=O)N[C@H]1CSCC(=O)NCCN(C(=O)CCC(=O)NCCOCCOCCC(=O)NCCOCCOCCC(=O)NCCCC[C@H](NC(=O)CCCCCCCCCCCCCCCCC(=O)O)C(=O)O)CCNC(=O)CSC[C@@H](C(=O)N[C@@H](Cc2c[nH]c3ccccc23)C(=O)N[C@@H](CC(C)C)C(=O)N[C@@H](CC(C)C)C(=O)N[C@@H](C)C(=O)NCC(=O)NCC(=O)N2CCC[C@H]2C(=O)N[C@@H](CO)C(=O)N[C@@H](CO)C(=O)NCC(=O)N[C@@H](C)C(=O)N2CCC[C@H]2C(=O)N2CCC[C@H]2C(=O)N2CCC[C@H]2C(=O)N[C@@H](CO)C(N)=O)NC(=O)[C@H](C(C)C)NC(=O)[C@H](Cc2ccccc2)NC(=O)[C@H](CCC(=O)O)NC(=O)C(C)(C)NC(=O)[C@H](C)NC(=O)[C@H](C)NC1=O [C(17-24) - L5A, YAibEGT-FTSDY-SIYLD-KXAAAib-EFVXW-LLAGG-PSSGA-PPPS-NH2 (where each X is C)]
- EC50 (human GIPR; Table 9, read-out: EC50 [nM] GIPR): 0.05 nM
- EC50 (human GLP-1R; Table 9, read-out: EC50 [nM] GLP1R): 0.11 nM
